Assay results reported in US7138361B2, “Herbicidal heterocycles” (E. I. du Pont de Nemours and Company, priority 2000, dated 2006).

Assays:
Assay type in all cases: in vivo
Sunflower [1] = assay: Test C preemergence; conditions: Rate 62 g/ha, scale 0 to 100
[2] = system: barnyardgrass (Echinochloa crus-galli); assay: Test C flooded paddy test; conditions: for Barnyardgrass plant response rating: Flooded Paddy, Rate 500 g/ha, scale 0 to 100, 0 no effect, 100 complete control; for Plant response rating, Barnyardgrass / Plant response rating (scale 0 to 100), Barnyardgrass: flooded paddy test; for Plant response rating, Barnyardgrass: scale 0 to 100 (0 no effect, 100 complete control); for Plant response rating (scale 0 to 100), Barnyardgrass: Rate 62 g/ha, visually evaluated after 12 to 14 days, 0 = no effect, 100 = complete control
Method in brief: (§1)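 Ratings come from visual comparison with control plants after 12 to 14 days in the greenhouse. Each species was at the 2-leaf stage when the flooded paddy was treated. Scores run from 0, meaning no effect, to 100, meaning complete control.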

[3] = system: smallflower flatsedge (Cyperus difformis); assay: Test C flooded paddy test; conditions: for Flatsedge plant response rating: Flooded Paddy, Rate 500 g/ha, scale 0 to 100, 0 no effect, 100 complete control; for Plant response rating, Flatsedge / Plant response rating (scale 0 to 100), Flatsedge: flooded paddy test; for Plant response rating, Flatsedge: scale 0 to 100 (0 no effect, 100 complete control); for Plant response rating (scale 0 to 100), Flatsedge: Rate 62 g/ha, visually evaluated after 12 to 14 days, 0 = no effect, 100 = complete control
Method in brief: as §1

rice (Oryza saliva) [4] = assay: Test C flooded paddy test; conditions: for Rice plant response rating: Flooded Paddy, Rate 500 g/ha, scale 0 to 100, 0 no effect, 100 complete control; for Plant response rating, Rice / Plant response rating (scale 0 to 100), Rice: flooded paddy test; for Plant response rating, Rice: scale 0 to 100 (0 no effect, 100 complete control); for Plant response rating (scale 0 to 100), Rice: Rate 62 g/ha, visually evaluated after 12 to 14 days, 0 = no effect, 100 = complete control
Method in brief: as §1

[5] = system: duck salad (Heteranthera limosa); assay: Test C flooded paddy test; conditions: for Ducksalad plant response rating: Flooded Paddy, Rate 500 g/ha, scale 0 to 100, 0 no effect, 100 complete control; for Plant response rating, Ducksalad / Plant response rating (scale 0 to 100), Ducksalad: flooded paddy test; for Plant response rating, Ducksalad: scale 0 to 100 (0 no effect, 100 complete control); for Plant response rating (scale 0 to 100), Ducksalad: Rate 62 g/ha, visually evaluated after 12 to 14 days, 0 = no effect, 100 = complete control
Method in brief: as §1

[6] = system: barnyardgrass (Echinochloa crus-galli); assay: Test B postemergence
Method in brief: (§2)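 Pre: seeded pots sprayed, chemical in non-phytotoxic solvent/surfactant mix. Post: plants 2–18 cm, 1–4 leaf, same formulation. Greenhouse 13–15 d; visual % control vs untreated, 0–100 scale.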

[7] = system: cocklebur (Xanthium strumarium); assay: Test B postemergence
Method in brief: as §2

[8] = system: Surinam grass (Brachiaria decumbens); assay: Test B postemergence
Method in brief: as §2

[9] = system: giant foxtail (Setaria faberii); assay: Test B postemergence
Method in brief: as §2

[10] = system: crabgrass (Digitaria sanguinalis); assay: Test B postemergence
Method in brief: as §2

[11] = system: lambsquarters (Chenopodium album); assay: Test B postemergence
Method in brief: as §2

[12] = system: morning glory (Ipomoea hederacea); assay: Test B postemergence
Method in brief: as §2

[13] = system: pigweed (Amaranthus retroflexus); assay: Test B postemergence
Method in brief: as §2

Sunflower [14] = assay: Test C preemergence; conditions: Rate 250 g/ha, scale 0 to 100, 0 no effect, 100 complete control
Nightshade = assay: Test C preemergence; conditions: Rate 500 g/ha, visual evaluation after 12 to 14 days
[15] = system: barnyardgrass (Echinochloa crus-galli); assay: Test B preemergence
Method in brief: as §2

rice (Oryza saliva) [16] = assay: Test B preemergence
Method in brief: as §2

corn (Zea mays) = assay: Test B preemergence
Method in brief: as §2

[17] = system: cocklebur (Xanthium strumarium); assay: Test B preemergence
Method in brief: as §2

[18] = system: Surinam grass (Brachiaria decumbens); assay: Test B preemergence
Method in brief: as §2

[19] = system: velvetleaf (Abutilon theophrasti); assay: Test B preemergence
Method in brief: as §2

[20] = system: giant foxtail (Setaria faberii); assay: Test B preemergence
Method in brief: as §2

[21] = system: crabgrass (Digitaria sanguinalis); assay: Test B preemergence
Method in brief: as §2

[22] = system: lambsquarters (Chenopodium album); assay: Test B preemergence
Method in brief: as §2

[23] = system: morning glory (Ipomoea hederacea); assay: Test B preemergence
Method in brief: as §2

[24] = system: pigweed (Amaranthus retroflexus); assay: Test B preemergence
Method in brief: as §2

[25] = Rate 125 g/ha, scale 0 to 100, 0 no effect, 100 complete control
[26] = Rate 500 g/ha, scale 0 (no effect) to 100 (complete control), 13 to 15 days
[27] = Preemergence, Rate 500 g/ha, scale 0 to 100, 0 no effect, 100 complete control
[28] = preemergence, Rate 125 g/ha, scale of 0 to 100 where 0 is no effect and 100 is complete control, 13 to 15 days
[29] = Rate 500 g/ha, scale 0 to 100, 0 is no effect, 100 is complete control, 13 to 15 days

CCC(CC)c1ccn(C2CCN(c3ccc(Br)c(OC)c3)C2=O)n1 (stereo not drawn) [Compound 143]
60: Plant response rating, Sunflower (Sunflower [1]) | Rice plant response rating (rice (Oryza saliva) [4]) | Plant response rating, Velvetleaf [19, 28]
30: Plant response rating, Rice (rice (Oryza saliva) [4]; Rate 125 g/ha) | Plant response rating, Foxtail, Giant [9, 25] | Plant response rating, Morningglory [12, 25] | Plant response rating, Rice (rice (Oryza saliva) [16]; [27]) | Plant response rating, Cocklebur [17, 27]
80: Plant response rating, Foxtail, Giant [9, 26] | Plant response rating, Crabgrass [10, 26] | Plant response rating, Lambsquarters [11, 25] | Plant response rating, Sunflower (Sunflower [14]) | Plant response rating, Surinam grass [18, 28] | Plant response rating, Velvetleaf [19, 27]
20: Plant response rating, Corn (corn (Zea mays); [27]) | Plant response rating, Morningglory [23, 28]
0: Plant response rating (scale 0 to 100), Rice (rice (Oryza saliva) [4]) | Plant response rating, Barnyardgrass [6, 25] | Plant response rating, Cocklebur [7, 25] | Plant response rating, Surinam grass [8, 25] | Plant response rating, Surinam grass [8, 26] | Plant response rating, Crabgrass [10, 25] | Plant response rating, Rice (rice (Oryza saliva) [16]; [28]) | Plant response rating, Corn (corn (Zea mays); [28]) | Plant response rating, Cocklebur [17, 28]
70: Plant response rating, Barnyardgrass [6, 26] | Plant response rating, Pigweed [13, 25] | Plant response rating, Morningglory [23, 27]
75: Plant response rating, Ducksalad ([5]; Rate 125 g/ha)
95: Plant response rating, Flatsedge ([3]; Rate 125 g/ha) | Plant response rating, Flatsedge ([3]; Rate 250 g/ha) | Plant response rating, Ducksalad ([5]; Rate 250 g/ha)
45: Plant response rating (scale 0 to 100), Ducksalad [5]
90: Plant response rating (scale 0 to 100), Flatsedge [3] | Plant response rating, Pigweed [13, 26] | Plant response rating, Surinam grass [18, 27]
55: Plant response rating (scale 0 to 100), Barnyardgrass [2]
100: Barnyardgrass plant response rating [2] | Plant response rating, Barnyardgrass ([2]; Rate 125 g/ha) | Plant response rating, Barnyardgrass ([2]; Rate 250 g/ha) | Flatsedge plant response rating [3] | Ducksalad plant response rating [5] | Plant response rating, Cocklebur [7, 26] | Plant response rating, Lambsquarters [11, 26] | Plant response rating, Morningglory [12, 26] | Plant response rating (0 to 100), Nightshade (Nightshade) | Plant response rating, Barnyardgrass [15, 27] | Plant response rating, Barnyardgrass [15, 28] | Plant response rating, Foxtail, Giant [20, 27] | Plant response rating, Foxtail, Giant [20, 28] | Plant response rating, Crabgrass [21, 27] | Plant response rating, Crabgrass [21, 28] | Plant response rating, Lambsquarters [22, 27] | Plant response rating, Lambsquarters [22, 28] | Plant response rating, Pigweed [24, 27] | Plant response rating, Pigweed [24, 28]
50: Plant response rating, Rice (rice (Oryza saliva) [4]; Rate 250 g/ha)

CC(C)(C)c1ccn(C2OCN(c3cccc(OC(F)F)c3)C2=O)n1 (stereo not drawn) [Compound 133]
90: Plant response rating, Barnyardgrass ([2]; Rate 125 g/ha) | Plant response rating (scale 0 to 100), Barnyardgrass [2] | Rice plant response rating (rice (Oryza saliva) [4]) | Plant response rating, Rice (rice (Oryza saliva) [4]; Rate 250 g/ha) | Plant response rating (0 to 100), Nightshade (Nightshade) | Plant response rating, Rice (rice (Oryza saliva) [16]; [28]) | Plant response rating, Corn (corn (Zea mays); [27])
50: Plant response rating (scale 0 to 100), Ducksalad [5]
70: Plant response rating, Rice (rice (Oryza saliva) [4]; Rate 125 g/ha)
100: Barnyardgrass plant response rating [2] | Plant response rating, Barnyardgrass ([2]; Rate 250 g/ha) | Flatsedge plant response rating [3] | Plant response rating, Flatsedge ([3]; Rate 125 g/ha) | Plant response rating, Flatsedge ([3]; Rate 250 g/ha) | Plant response rating (scale 0 to 100), Flatsedge [3] | Ducksalad plant response rating [5] | Plant response rating, Ducksalad ([5]; Rate 125 g/ha) | Plant response rating, Ducksalad ([5]; Rate 250 g/ha) | Plant response rating, Barnyardgrass [6, 29] | Plant response rating, Lambsquarters [11, 25] | Plant response rating, Barnyardgrass [15, 27] | Plant response rating, Barnyardgrass [15, 28] | Plant response rating, Rice (rice (Oryza saliva) [16]; [27]) | Plant response rating, Surinam grass [18, 27] | Plant response rating, Surinam grass [18, 28] | Plant response rating, Foxtail, Giant [20, 27] | Plant response rating, Foxtail, Giant [20, 28] | Plant response rating, Crabgrass [21, 27] | Plant response rating, Crabgrass [21, 28] | Plant response rating, Lambsquarters [22, 27] | Plant response rating, Lambsquarters [22, 28] | Plant response rating, Pigweed [24, 27] | Plant response rating, Pigweed [24, 28]
0: Plant response rating, Sunflower (Sunflower [1]) | Plant response rating, Surinam grass [8, 25] | Plant response rating, Foxtail, Giant [9, 25] | Plant response rating, Morningglory [12, 25] | Plant response rating, Sunflower (Sunflower [14]) | Plant response rating, Corn (corn (Zea mays); [28]) | Plant response rating, Cocklebur [17, 27] | Plant response rating, Cocklebur [17, 28] | Plant response rating, Velvetleaf [19, 28] | Plant response rating, Morningglory [23, 27] | Plant response rating, Morningglory [23, 28]
30: Plant response rating, Cocklebur [7, 29]
60: Plant response rating (scale 0 to 100), Rice (rice (Oryza saliva) [4])
40: Plant response rating, Surinam grass [8, 29] | Plant response rating, Crabgrass [10, 25]
80: Plant response rating, Barnyardgrass [6, 25] | Plant response rating, Pigweed [13, 25]
10: Plant response rating, Cocklebur [7, 25]
